Test results published in patent publication US6858591B2, “Antibiotic AA 896 analogs” (Wyeth Holdings Corporation, priority 2001, dated 2005).
Converted amounts (≈) assume the structure as drawn. Where two headings read alike, the source gives them in different places.

Key:
Assay in all cases: In vitro MIC, broth dilution
Type in all cases: cell-based
[1] = test system: E. coli GC 4559; details: Escherichia coli, GC4559
[2] = test system: E. coli GC 4560; details: Escherichia coli, GC4560
[3] = test system: E. coli GC 3226; details: Escherichia coli, GC3226
[4] = test system: S. marcescens GC 4077; details: Serratia marcescens, GC4077
[5] = test system: C. albicans GC 3066; details: Candida albicans, GC3066
[6] = test system: M. morganii GC 4531; details: Morganella morganii, GC4531
[7] = test system: K. pneumoniae GC 4534; details: Klebsiella pneumoniae, GC4534
[8] = test system: E. cloacae GC 3783; details: Enterobacter cloacae, GC3783
[9] = test system: P. aeruginosa GC 4532; details: Pseudomonas aeruginosa, GC4532
[10] = test system: CNS GC 4537
In short: (§1)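 Test strains at 5×10^5 CFU/ml face antibiotic from 64 down to 0.06 μg/ml in Mueller-Hinton II, NCCLS broth dilution. MIC is read as the lowest growth-inhibiting concentration after 18 h at 35 °C.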

[11] = test system: CNS GC 4538
In short: as §1

[12] = test system: CNS GC 4547
In short: as §1

[13] = test system: E. faecalis GC 2242; details: Enterococcus faecalis, GC2242
In short: as §1

[14] = test system: E. faecalis GC 4555; details: Enterococcus faecalis, GC4555
In short: as §1

[15] = test system: E. faecalis GC 842; details: Enterococcus faecalis, GC842
In short: as §1

[16] = test system: S. aureus GC 1131; details: Staphylococcus aureus, GC1131
In short: as §1

[17] = test system: S. aureus GC 2216; details: Staphylococcus aureus, GC2216
In short: as §1

[18] = test system: S. aureus GC 4536; details: Staphylococcus aureus, GC4536
In short: as §1

[19] = test system: E. coli GC 2203; details: Escherichia coli, GC2203
[20] = test system: P. aeruginosa GC 2214; details: Pseudomonas aeruginosa, GC2214
[21] = S. marcescens GC 4077, read-out: MIC
[22] = C. albicans GC 3066, read-out: MIC
[23] = M. morganii GC 4531, read-out: MIC
[24] = K. pneumoniae GC 4534, read-out: MIC
[25] = E. cloacae GC 3783, read-out: MIC
[26] = P. aeruginosa GC 4532, read-out: MIC
[27] = E. faecalis GC 2242, read-out: MIC
[28] = E. faecalis GC 4555, read-out: MIC
[29] = E. faecalis GC 842, read-out: MIC
[30] = S. aureus GC 1131, read-out: MIC
[31] = S. aureus GC 2216, read-out: MIC
[32] = S. aureus GC 4536, read-out: MIC
[33] = P. aeruginosa GC 2214, read-out: MIC

COc1ccc(Cn2c(=O)ccn([C@@H]3OC([C@H](O)[C@H](NC(=O)CCCCCCCCCCN)C(=O)OC(C)(C)C)[C@@H](O[Si](C)(C)C(C)(C)C)[C@H]3O[Si](C)(C)C(C)(C)C)c2=O)cc1 (stereo partly drawn) [Example 23, tert-Butyl (2S,3R)-2-[(11-aminoundecanoyl)amino]-3-[(3R,4R,5R)-3,4-bis{[tert-butyl(dimethyl)silyl]oxy}-5-(3-(4-methoxybenzyl)-2,4-dioxo-3,4-dihydro-1(2H)-pyrimidinyl)tetrahydro-2-furanyl]-3-hydroxypropanoate] showed an MIC ([1]; E. coli GC 4559, read-out: MIC) greater than 128 µg/mL, an MIC ([2]; E. coli GC 4560, read-out: MIC) of 128 µg/mL (≈ 141 µM) and an MIC ([3]; E. coli GC 3226, read-out: MIC) greater than 128 µg/mL. For the same compound, the MIC [4, 21] was 128 µg/mL (≈ 141 µM), the MIC [5, 22] was 128 µg/mL (≈ 141 µM) and the MIC [6, 23] was 128 µg/mL (≈ 141 µM). For the same compound, the MIC [7, 24] was greater than 128 µg/mL, the MIC [8, 25] was greater than 128 µg/mL and the MIC [9, 26] was 128 µg/mL (≈ 141 µM). For the same compound, the MIC ([10]; CNS GC 4537, read-out: MIC) was 128 µg/mL (≈ 141 µM), the MIC ([11]; CNS GC 4538, read-out: MIC) was 128 µg/mL (≈ 141 µM) and the MIC ([12]; CNS GC 4547, read-out: MIC) was greater than 128 µg/mL. The MIC [13, 27] was 128 µg/mL (≈ 141 µM), the MIC [14, 28] was 128 µg/mL (≈ 141 µM) and the MIC [15, 29] was 128 µg/mL (≈ 141 µM). For the same compound, the MIC [16, 30] was greater than 128 µg/mL, the MIC [17, 31] was 128 µg/mL (≈ 141 µM) and the MIC [18, 32] was 128 µg/mL (≈ 141 µM). The MIC ([19]; E. coli GC 2203, read-out: MIC) was greater than 128 µg/mL and the MIC [20, 33] was 128 µg/mL (≈ 141 µM).

Compound COc1ccc(Cn2c(=O)ccn([C@@H]3OC([C@H](O)[C@H](NCCCNC(=O)[C@H](CC(=O)OCc4ccccc4)NC(=O)OCc4ccccc4)C(=O)OC(C)(C)C)[C@@H](O[Si](C)(C)C(C)(C)C)[C@H]3O[Si](C)(C)C(C)(C)C)c2=O)cc1 (stereo partly drawn) [Example 16, tert-Butyl (5S,12S)-5-[2-(benzyloxy)-2-oxoethyl]-12-[(R)-[(3R,4R,5R)-3,4-bis{[tert-butyl(dimethyl)silyl]oxy}-5-(3-(4-methoxybenzyl)-2,4-dioxo-3,4-dihydro-1(2H)-pyrimidinyl)tetrahydro-2-furanyl](hydroxy)methyl]-3,6-dioxo-1-phenyl-2-oxa-4,7,11-triazatridecan-13-oate] has an MIC [1] greater than 128 µg/mL, an MIC [2] greater than 128 µg/mL and an MIC [3] greater than 128 µg/mL. For the same compound, the MIC [4] was greater than 128 µg/mL, the MIC [5] was 128 µg/mL (≈ 114 µM) and the MIC [6] was greater than 128 µg/mL. The MIC [7] was greater than 128 µg/mL, the MIC [8] was greater than 128 µg/mL and the MIC [9] was greater than 128 µg/mL. It also gave an MIC [10] greater than 128 µg/mL, an MIC [11] greater than 128 µg/mL and an MIC [12] greater than 128 µg/mL. For the same compound, the MIC [13] was 128 µg/mL (≈ 114 µM), the MIC [14] was greater than 128 µg/mL and the MIC [15] was greater than 128 µg/mL. For the same compound, the MIC [16] was greater than 128 µg/mL, the MIC [17] was greater than 128 µg/mL and the MIC [18] was greater than 128 µg/mL. It also gave an MIC [19] greater than 128 µg/mL and an MIC [20] greater than 128 µg/mL.

Work on CCOC(=O)C(NCCCNC(=O)[C@@H](NC(=O)[C@H](CCCNC(=N)N[N+](=O)[O-])NC(=O)N[C@H](C(=O)OCc1ccccc1)C(C)C)C(C)O)C(O)[C@H]1O[C@@H](n2ccc(=O)[nH]c2=O)[C@H](OC(C)=O)[C@@H]1OC(C)=O (stereo partly drawn) [Example 35] yielded an MIC ([1]; E. coli GC 4559, read-out: MIC) greater than 128 µg/mL, an MIC ([2]; E. coli GC 4560, read-out: MIC) greater than 128 µg/mL and an MIC ([3]; E. coli GC 3226, read-out: MIC) greater than 128 µg/mL. For the same compound, the MIC [4, 21] was greater than 128 µg/mL, the MIC [5, 22] was 128 µg/mL (≈ 125 µM) and the MIC [6, 23] was 128 µg/mL (≈ 125 µM). The MIC [7, 24] was greater than 128 µg/mL, the MIC [8, 25] was greater than 128 µg/mL and the MIC [9, 26] was 128 µg/mL (≈ 125 µM). The MIC [10] was greater than 128 µg/mL, the MIC [11] was greater than 128 µg/mL and the MIC [12] was greater than 128 µg/mL. For the same compound, the MIC [13, 27] was 128 µg/mL (≈ 125 µM), the MIC [14, 28] was greater than 128 µg/mL and the MIC [15, 29] was greater than 128 µg/mL. For the same compound, the MIC [16, 30] was greater than 128 µg/mL, the MIC [17, 31] was greater than 128 µg/mL and the MIC [18, 32] was greater than 128 µg/mL. For the same compound, the MIC ([19]; E. coli GC 2203, read-out: MIC) was greater than 128 µg/mL and the MIC [20, 33] was 128 µg/mL (≈ 125 µM).
